Some results are limits rather than exact numbers.

The target in this test is T1, human NOX4 (Homo sapiens, UniProt Q9NPH5).
T1 construct: expressed in transfected cells; membrane fraction used
T1 sequence (Q9NPH5 1-578): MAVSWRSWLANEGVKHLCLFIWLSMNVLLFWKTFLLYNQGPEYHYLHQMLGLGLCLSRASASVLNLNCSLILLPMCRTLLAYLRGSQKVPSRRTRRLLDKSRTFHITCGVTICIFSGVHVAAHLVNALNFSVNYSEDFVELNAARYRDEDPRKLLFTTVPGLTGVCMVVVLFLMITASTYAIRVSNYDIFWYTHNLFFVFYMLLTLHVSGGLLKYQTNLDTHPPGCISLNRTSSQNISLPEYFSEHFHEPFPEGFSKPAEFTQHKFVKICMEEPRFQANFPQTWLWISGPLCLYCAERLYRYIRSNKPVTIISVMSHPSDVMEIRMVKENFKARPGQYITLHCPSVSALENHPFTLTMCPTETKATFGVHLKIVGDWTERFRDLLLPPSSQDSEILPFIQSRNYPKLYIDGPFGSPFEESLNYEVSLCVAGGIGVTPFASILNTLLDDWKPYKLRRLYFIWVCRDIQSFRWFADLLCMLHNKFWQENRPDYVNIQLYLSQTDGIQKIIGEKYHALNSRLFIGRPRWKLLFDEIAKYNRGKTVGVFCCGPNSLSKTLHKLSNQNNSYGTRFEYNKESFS
T1 sequence (P13498 1-195 partner): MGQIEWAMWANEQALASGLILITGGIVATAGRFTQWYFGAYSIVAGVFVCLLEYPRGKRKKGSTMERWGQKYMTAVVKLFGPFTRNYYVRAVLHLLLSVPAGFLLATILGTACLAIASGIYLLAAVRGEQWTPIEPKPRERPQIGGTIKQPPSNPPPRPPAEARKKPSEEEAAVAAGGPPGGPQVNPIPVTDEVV
Kind of test: Cell free membrane based in vitro NOX4 assay: H2O2 production by membranes expressing human NOX4, measured with Amplex Red. The class given is biochemical. The following applies: for inhibition at 1 µM: 1.0 μM compound, read-out: Percentage inhibition at 1.0 μM; for inhibition at 10 µM: 10.0 μM compound, read-out: Percentage inhibition at 10.0 μM; for IC50: class symbols. The method, boiled down:
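Membranes from HEK cells stably overexpressing human NOX4 were preincubated 20 min with inhibitor in pH 7.4 HEPES buffer containing HRP and Amplex Red, then NADPH was added. H2O2 was followed for 10 min by fluorescence (ex 544/em 590 nm). IC50 from nonlinear regression of % maximal uninhibited response.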

Broadly, the inhibition is the change of the read-out against control, counted positive when it falls. By IC50 is commonly meant the concentration needed to halve the response being measured. `CCn1nc(C)c2c(=O)c(O)c(-c3c(F)cccc3Cl)[nH]c21` [Example 123, 6-(2-Chloro-6-fluorophenyl)-1-ethyl-5-hydroxy-3-methyl-1,7-dihydro-4H-pyrazolo[3,4-b]pyridin-4-one]: the inhibition at 1 µM turned out to be 75.5%, the inhibition at 10 µM worked out at 76.2% and the IC50 is greater than 0.15 µM.
Take `Cc1nn(C2CC2)c2[nH]c(-c3c(F)cccc3Cl)c(O)c(=O)c12` [Example 124, 6-(2-Chloro-6-fluorophenyl)-1-cyclopropyl-5-hydroxy-3-methyl-1,7-dihydro-4H-pyrazolo[3,4-b]pyridin-4-one]: the inhibition at 1 µM stood at 69.3%, the inhibition at 10 µM came out at 81.9% and the IC50 is greater than 0.15 µM.
Turning to `Cc1nn(C2CC2)c2[nH]c(-c3ccccc3Cl)c(O)c(=O)c12` [Example 125, 6-(2-Chlorophenyl)-1-cyclopropyl-5-hydroxy-3-methyl-1,7-dihydro-4H-pyrazolo[3,4-b]pyridin-4-one], the inhibition at 1 µM is 58.4% and the inhibition at 10 µM was 66.8%.
Turning to `Cc1cc(F)ccc1-n1nc(C)c2c(=O)c(O)c(-c3ccccc3Cl)[nH]c21` [Example 126, 6-(2-Chlorophenyl)-1-(4-fluoro-2-methylphenyl)-5-hydroxy-3-methyl-1,7-dihydro-4H-pyrazolo[3,4-b]pyridin-4-one], the inhibition at 1 µM came to 63.4%, the inhibition at 10 µM came out at 76.3% and the IC50 was greater than 0.15 µM.
The matching figures for `Cc1nn(C2CCCC2)c2[nH]c(-c3c(F)cccc3F)c(O)c(=O)c12` [Example 127, 1-Cyclopentyl-6-(2,6-difluorophenyl)-5-hydroxy-3-methyl-1,7-dihydro-4H-pyrazolo[3,4-b]pyridin-4-one]: 87.5%, 89.5% and less than 0.05 µM.
The corresponding values for `Cc1nn(C2CCOCC2)c2[nH]c(-c3c(F)cccc3F)c(O)c(=O)c12` [Example 128, 6-(2,6-Difluorophenyl)-5-hydroxy-3-methyl-1-(tetrahydro-2H-pyran-4-yl)-1,7-dihydro-4H-pyrazolo[3,4-b]pyridin-4-one] are 88.1%, 92.1% and 0.05 to 0.1 µM.
On to `CCn1nc(C)c2c(=O)c(O)c(-c3cc(CNC(=O)C(C)(C)C)ccc3Cl)[nH]c21` [Example 129, N-(4-Chloro-3-(1-ethyl-5-hydroxy-3-methyl-4-oxo-4,7-dihydro-1H-pyrazolo[3,4-b]pyridin-6-yl)benzyl)pivalamide], for which the inhibition at 1 µM was determined as 85.1%, the inhibition at 10 µM was 74.4% and the IC50 is 0.05 to 0.1 µM.
The matching figures for `O=c1c(O)c(-c2ccccc2Cl)[nH]c2c1c(C(F)(F)F)nn2C1CCOCC1` [Example 130, 6-(2-Chlorophenyl)-5-hydroxy-1-(tetrahydro-2H-pyran-4-yl)-3-(trifluoromethyl)-1H-pyrazolo[3,4-b]pyridin-4(7H)-one]: 69.6%, 98.5% and greater than 0.15 µM.
The corresponding values for `Cc1nn(C2CCC2)c2[nH]c(-c3c(F)cccc3F)c(O)c(=O)c12` [Example 131, 1-Cyclobutyl-6-(2,6-difluorophenyl)-5-hydroxy-3-methyl-1H-pyrazolo[3,4-b]pyridin-4(7H)-one] are 92.4%, 90.2% and less than 0.05 µM.
The corresponding values for `Cn1nc(C(F)(F)F)c2c(=O)c(O)c(-c3cc(CNC(=O)C(C)(C)C)ccc3Cl)[nH]c21` [Example 132, N-(4-Chloro-3-(5-hydroxy-1-methyl-4-oxo-3-(trifluoromethyl)-4,7-dihydro-1H-pyrazolo[3,4-b]pyridin-6-yl)benzyl)pivalamide] are 74.8%, 88.7% and greater than 0.15 µM.
With `Cc1nn(C2CC2)c2[nH]c(-c3cc(CNC(=O)C(C)(C)C)ccc3Cl)c(O)c(=O)c12` [Example 133, N-(4-Chloro-3-(1-cyclopropyl-5-hydroxy-3-methyl-4-oxo-4,7-dihydro-1H-pyrazolo[3,4-b]pyridin-6-yl)benzyl)pivalamide], the inhibition at 1 µM came to 77.3%, the inhibition at 10 µM worked out at 88.8% and the half-inhibitory concentration (IC50) is greater than 0.15 µM.
The corresponding values for `O=c1c(O)c(-c2c(F)cccc2F)[nH]c2c1c(C(F)(F)F)nn2C1CCOCC1` [Example 134, 6-(2,6-Difluorophenyl)-5-hydroxy-1-(tetrahydro-2H-pyran-4-yl)-3-(trifluoromethyl)-1,7-dihydro-4H-pyrazolo[3,4-b]pyridin-4-one] are 57.1%, 88.2% and greater than 0.15 µM.
The corresponding values for `Cn1nc(C(F)(F)F)c2c(=O)c(O)c(-c3cc(CNC(=O)C(C)(C)C)ccc3F)[nH]c21` [Example 135, N-(4-Fluoro-3-(5-hydroxy-1-methyl-4-oxo-3-(trifluoromethyl)-4,7-dihydro-1H-pyrazolo[3,4-b]pyridin-6-yl)benzyl)pivalamide] are 71%, 90.7% and greater than 0.15 µM.
The corresponding values for `Cc1nn(C2CCCCC2)c2[nH]c(-c3c(F)cccc3F)c(O)c(=O)c12` [Example 136, 1-Cyclohexyl-6-(2,6-difluorophenyl)-5-hydroxy-3-methyl-1,7-dihydro-4H-pyrazolo[3,4-b]pyridin-4-one] are 85%, 87.5% and less than 0.05 µM.
`Cc1nn(C2CCC(F)(F)CC2)c2[nH]c(-c3c(F)cccc3F)c(O)c(=O)c12` [Example 137, 1-(4,4-Difluorocyclohexyl)-6-(2,6-difluorophenyl)-5-hydroxy-3-methyl-1H-pyrazolo[3,4-b]pyridin-4(7H)-one]: the inhibition at 1 µM amounted to 89.5%, the inhibition at 10 µM is 86.3% and the IC50 fell in the range of 0.05 to 0.1 µM.
The corresponding values for `CCn1nc(C)c2c(=O)c(O)c(-c3cc(CNC(=O)C(C)(C)C)ccc3F)[nH]c21` [Example 138, N-(3-(1-Ethyl-5-hydroxy-3-methyl-4-oxo-4,7-dihydro-1H-pyrazolo[3,4-b]pyridin-6-yl)-4-fluorobenzyl)pivalamide] are 92.6%, 85% and greater than 0.15 µM.
The matching figures for `Cc1nn(-c2ccc(F)cc2Cl)c2[nH]c(-c3c(F)cccc3F)c(O)c(=O)c12` [Example 139, 1-(2-Chloro-4-fluorophenyl)-6-(2,6-difluorophenyl)-5-hydroxy-3-methyl-1H-pyrazolo[3,4-b]pyridin-4(7H)-one]: 99%, 100% and 0.05 to 0.1 µM.
The corresponding values for `CCc1nn(C2CC2)c2[nH]c(-c3c(F)cccc3F)c(O)c(=O)c12` [Example 140, 1-Cyclopropyl-6-(2,6-difluorophenyl)-3-ethyl-5-hydroxy-1H-pyrazolo[3,4-b]pyridin-4(7H)-one] are 100%, 100% and 0.05 to 0.1 µM.
On to `Cc1nn(-c2ccc(F)cc2Cl)c2[nH]c(-c3ccccc3Cl)c(O)c(=O)c12` [Example 141, 1-(2-Chloro-4-fluorophenyl)-6-(2-chlorophenyl)-5-hydroxy-3-methyl-1H-pyrazolo[3,4-b]pyridin-4(7H)-one], for which the inhibition at 1 µM came out at 77.9%, the inhibition at 10 µM was 95.1% and the half-inhibitory concentration (IC50) is greater than 0.15 µM.
The matching figures for `Cc1nn(C2CCOCC2)c2[nH]c(-c3cc(CNC(=O)C(C)(C)C)ccc3Cl)c(O)c(=O)c12` [Example 142, N-(4-Chloro-3-(5-hydroxy-3-methyl-4-oxo-1-(tetrahydro-2H-pyran-4-yl)-4,7-dihydro-1H-pyrazolo[3,4-b]pyridin-6-yl)benzyl)pivalamide]: 80.4%, 69.9% and greater than 0.15 µM.
As for `CCn1nc(C)c2c(=O)c(O)c(-c3ccccc3C(F)(F)F)[nH]c21` [Example 143, 1-Ethyl-5-hydroxy-3-methyl-6-(2-(trifluoromethyl)phenyl)-1H-pyrazolo[3,4-b]pyridin-4(7H)-one], the inhibition at 1 µM amounted to 73.1% and the half-inhibitory concentration (IC50) was in the range of 0.1 to 0.15 µM.
Turning to `Cc1nn(C2CCC2)c2[nH]c(-c3ccccc3Cl)c(O)c(=O)c12` [Example 144, 6-(2-Chlorophenyl)-1-cyclobutyl-5-hydroxy-3-methyl-1H-pyrazolo[3,4-b]pyridin-4(7H)-one], the inhibition at 1 µM was 83.6%, the inhibition at 10 µM came to 63.8% and the IC50 fell in the range of 0.05 to 0.1 µM.
The corresponding values for `Cn1nc(Cc2ccccc2Cl)c2c(=O)c(O)c(-c3ccccc3Cl)[nH]c21` [Example 145, 3-(2-Chlorobenzyl)-6-(2-chlorophenyl)-5-hydroxy-1-methyl-1H-pyrazolo[3,4-b]pyridin-4(7H)-one] are 90%, 93.2% and greater than 0.15 µM.

These data come from US20200247800A1, “SUBSTITUTED BICYCLIC HETEROCYCLIC COMPOUNDS AS NADPH OXIDASE INHIBITORS” (Glenmark Pharmaceuticals S.A., priority 2017, published 2020).
